In ChEMBL document CHEMBL3431459, “Roche carnitine palmitoyltransferase modulator screening data (supplementary data associated with the publication CHEMBL2216752)”:
Converted amounts (≈) assume the structure as drawn.

Columns and labels:
[1] = SUPPLEMENTARY: PAMPA permeability assay; type: physicochemical; settings: read-out: Permeability
[2] = SUPPLEMENTARY: Lipophilicity (log D) Determination by high-throughput shake-flask; type: physicochemical; settings: octanol/water
[3] = molecular target: T1, Carnitine O-palmitoyltransferase 2, mitochondrial (Homo sapiens, UniProt P23786); assay: (§1) SUPPLEMENTARY: Inhibition of Carnitine palmitoyltransferase 2
T1 sequence (P23786 whole entry): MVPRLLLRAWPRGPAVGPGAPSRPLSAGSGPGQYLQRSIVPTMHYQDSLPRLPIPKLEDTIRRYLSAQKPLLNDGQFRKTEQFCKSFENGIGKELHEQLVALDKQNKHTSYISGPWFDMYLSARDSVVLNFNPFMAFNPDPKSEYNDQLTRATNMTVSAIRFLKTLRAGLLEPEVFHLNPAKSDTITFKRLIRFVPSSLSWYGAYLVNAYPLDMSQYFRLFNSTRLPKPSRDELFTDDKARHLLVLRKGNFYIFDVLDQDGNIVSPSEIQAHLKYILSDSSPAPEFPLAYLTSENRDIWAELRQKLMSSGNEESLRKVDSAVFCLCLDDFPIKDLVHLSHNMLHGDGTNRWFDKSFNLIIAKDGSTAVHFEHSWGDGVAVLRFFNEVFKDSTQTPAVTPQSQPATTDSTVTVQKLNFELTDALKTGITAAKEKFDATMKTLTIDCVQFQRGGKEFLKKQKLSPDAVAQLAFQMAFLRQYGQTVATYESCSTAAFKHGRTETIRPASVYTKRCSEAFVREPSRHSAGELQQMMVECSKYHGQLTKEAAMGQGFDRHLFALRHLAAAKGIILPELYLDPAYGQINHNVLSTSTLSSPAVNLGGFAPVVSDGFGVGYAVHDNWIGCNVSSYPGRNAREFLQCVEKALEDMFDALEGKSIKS

[4] = molecular target: T2, Carnitine O-palmitoyltransferase 2, mitochondrial (Rattus norvegicus, UniProt P18886); assay: as §1
T2 sequence (P18886 whole entry): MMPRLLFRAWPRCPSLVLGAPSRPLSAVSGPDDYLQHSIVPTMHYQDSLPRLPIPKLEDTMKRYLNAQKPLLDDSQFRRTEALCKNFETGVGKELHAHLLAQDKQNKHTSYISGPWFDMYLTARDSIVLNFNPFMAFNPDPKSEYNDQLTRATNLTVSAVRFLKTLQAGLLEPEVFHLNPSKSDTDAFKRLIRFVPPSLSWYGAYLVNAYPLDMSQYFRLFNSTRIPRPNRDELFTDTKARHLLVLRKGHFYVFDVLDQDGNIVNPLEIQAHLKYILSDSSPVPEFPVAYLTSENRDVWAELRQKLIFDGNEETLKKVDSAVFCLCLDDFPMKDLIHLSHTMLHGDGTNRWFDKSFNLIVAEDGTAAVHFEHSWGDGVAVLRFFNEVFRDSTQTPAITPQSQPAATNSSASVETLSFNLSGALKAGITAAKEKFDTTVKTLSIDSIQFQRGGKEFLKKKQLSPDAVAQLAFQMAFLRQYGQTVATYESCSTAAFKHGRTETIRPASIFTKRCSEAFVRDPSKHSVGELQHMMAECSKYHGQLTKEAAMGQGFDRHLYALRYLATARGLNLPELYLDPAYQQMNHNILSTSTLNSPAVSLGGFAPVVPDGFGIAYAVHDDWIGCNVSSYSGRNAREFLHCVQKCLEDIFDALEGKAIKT

[5] = molecular target: T3, Carnitine O-palmitoyltransferase 1, muscle isoform (Homo sapiens, UniProt Q92523); assay: SUPPLEMENTARY: Inhibition of Carnitine palmitoyltransferase 1, muscle isoform; set-up: species or system Muscle tissue
T3 sequence (Q92523 whole entry): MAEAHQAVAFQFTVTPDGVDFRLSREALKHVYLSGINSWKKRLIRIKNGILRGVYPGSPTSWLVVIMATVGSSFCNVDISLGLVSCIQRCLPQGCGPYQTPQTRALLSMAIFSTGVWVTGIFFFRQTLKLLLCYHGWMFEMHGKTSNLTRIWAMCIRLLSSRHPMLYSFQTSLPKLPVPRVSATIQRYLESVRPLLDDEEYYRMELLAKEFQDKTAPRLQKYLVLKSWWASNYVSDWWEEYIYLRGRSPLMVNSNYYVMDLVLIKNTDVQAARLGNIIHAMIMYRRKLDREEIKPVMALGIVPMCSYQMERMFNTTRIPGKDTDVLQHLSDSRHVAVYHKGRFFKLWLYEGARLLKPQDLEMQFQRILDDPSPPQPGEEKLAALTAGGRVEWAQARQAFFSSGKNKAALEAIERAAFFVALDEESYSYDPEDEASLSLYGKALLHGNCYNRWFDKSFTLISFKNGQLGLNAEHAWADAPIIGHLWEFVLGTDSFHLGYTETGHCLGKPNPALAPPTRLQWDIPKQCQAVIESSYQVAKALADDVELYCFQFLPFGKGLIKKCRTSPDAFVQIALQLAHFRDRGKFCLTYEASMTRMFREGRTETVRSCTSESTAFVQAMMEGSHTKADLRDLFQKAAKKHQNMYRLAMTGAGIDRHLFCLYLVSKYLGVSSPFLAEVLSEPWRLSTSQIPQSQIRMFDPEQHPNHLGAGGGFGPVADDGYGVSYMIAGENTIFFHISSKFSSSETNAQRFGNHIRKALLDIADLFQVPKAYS

[6] = molecular target: T4, Carnitine O-palmitoyltransferase 1, liver isoform (Homo sapiens, UniProt P50416); assay: (§2) SUPPLEMENTARY: Inhibition of Carnitine palmitoyltransferase 1, liver isoform
T4 sequence (P50416 whole entry): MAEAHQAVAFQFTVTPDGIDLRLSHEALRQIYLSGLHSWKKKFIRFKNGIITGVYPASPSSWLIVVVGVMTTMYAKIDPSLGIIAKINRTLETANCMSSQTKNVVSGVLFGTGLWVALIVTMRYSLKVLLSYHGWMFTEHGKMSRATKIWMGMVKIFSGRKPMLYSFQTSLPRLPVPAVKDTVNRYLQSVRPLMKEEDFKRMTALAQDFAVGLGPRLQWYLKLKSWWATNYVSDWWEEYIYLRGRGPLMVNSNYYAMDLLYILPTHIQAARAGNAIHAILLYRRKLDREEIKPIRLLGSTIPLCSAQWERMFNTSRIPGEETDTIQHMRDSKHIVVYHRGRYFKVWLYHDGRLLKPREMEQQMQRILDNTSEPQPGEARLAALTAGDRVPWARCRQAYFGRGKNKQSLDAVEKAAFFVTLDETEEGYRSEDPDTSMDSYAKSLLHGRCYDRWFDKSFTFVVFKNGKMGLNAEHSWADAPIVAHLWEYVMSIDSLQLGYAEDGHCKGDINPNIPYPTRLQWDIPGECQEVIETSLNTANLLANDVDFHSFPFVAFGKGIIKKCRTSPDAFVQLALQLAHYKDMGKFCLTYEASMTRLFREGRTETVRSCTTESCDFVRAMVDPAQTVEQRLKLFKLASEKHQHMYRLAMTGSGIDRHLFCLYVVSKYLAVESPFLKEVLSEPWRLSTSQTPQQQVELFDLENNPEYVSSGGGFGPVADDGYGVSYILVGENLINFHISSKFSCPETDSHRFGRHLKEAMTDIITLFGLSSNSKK

[7] = molecular target: T5, Carnitine O-palmitoyltransferase 1, liver isoform (Rattus norvegicus, UniProt P32198); assay: as §2
T5 sequence (P32198 whole entry): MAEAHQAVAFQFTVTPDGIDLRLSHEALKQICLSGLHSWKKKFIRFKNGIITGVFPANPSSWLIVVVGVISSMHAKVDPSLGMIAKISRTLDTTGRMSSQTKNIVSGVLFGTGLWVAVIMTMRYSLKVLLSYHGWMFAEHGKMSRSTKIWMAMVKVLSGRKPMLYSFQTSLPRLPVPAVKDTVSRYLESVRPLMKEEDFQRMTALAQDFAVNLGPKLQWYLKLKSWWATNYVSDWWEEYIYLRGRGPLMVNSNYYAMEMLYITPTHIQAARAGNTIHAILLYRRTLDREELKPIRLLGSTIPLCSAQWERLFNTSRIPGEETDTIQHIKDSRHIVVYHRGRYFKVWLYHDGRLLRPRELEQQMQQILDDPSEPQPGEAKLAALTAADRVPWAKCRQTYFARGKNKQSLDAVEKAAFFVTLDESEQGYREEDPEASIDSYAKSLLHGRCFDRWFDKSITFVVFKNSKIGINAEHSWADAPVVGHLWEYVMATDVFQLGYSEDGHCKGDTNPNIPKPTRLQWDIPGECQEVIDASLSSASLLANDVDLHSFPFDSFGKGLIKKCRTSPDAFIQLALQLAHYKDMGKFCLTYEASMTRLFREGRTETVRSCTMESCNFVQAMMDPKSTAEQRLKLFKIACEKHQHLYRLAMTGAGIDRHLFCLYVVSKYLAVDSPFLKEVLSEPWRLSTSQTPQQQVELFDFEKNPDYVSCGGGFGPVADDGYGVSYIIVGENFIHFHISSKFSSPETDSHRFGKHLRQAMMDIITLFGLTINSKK

[8] = SUPPLEMENTARY: Lyophilisation Solubility Assay (LYSA); type: physicochemical; settings: read-out: Kinetic_solubility

SMILES | Papp [1] | logD [2] | IC50 [3] | IC50 [4] | IC50 [5] | IC50 [6] | IC50 [7] | solubility kinetic [8]
O=C(COc1ccccc1)N1CCC(n2c(COc3ccccc3)nc3cc(F)ccc32)CC1 | 2.27 ×10⁻⁶ cm/s | 3.95 | > 100000 nM | > 100000 nM | > 100000 nM | 44400 nM | > 10000 nM | < 1 µg/mL
COc1ccc(Cl)cc1Cc1cn(C)c2ccc(C(=O)Nc3nc(CC(=O)O)cs3)cc12 | 0.51 ×10⁻⁶ cm/s | 2.39 | > 100000 nM | > 100000 nM | 2410 nM | 40.6 nM | 54.8 nM | 19 µg/mL (≈ 40.4 µM)
CCCN(c1cc(C(=O)Nc2ccc(CC(=O)O)cc2)cc2c1OCO2)S(=O)(=O)c1cc(Cl)ccc1OC | 3.45 ×10⁻⁶ cm/s | 0.87 | > 100000 nM | > 100000 nM | 955 nM | 191 nM | 184 nM | 517 µg/mL (≈ 922 µM)
NC(=O)c1n[nH]c2cc(-c3noc([C@H]4CCCCN4C(=O)COc4ccccc4)n3)ccc12 | 2.35 ×10⁻⁶ cm/s | 3.04 | > 100000 nM | > 100000 nM | > 100000 nM | 63.5 nM | 1070 nM | 5 µg/mL (≈ 11.2 µM)
Nc1ccc(-c2noc([C@H]3CCCCN3C(=O)COc3ccccc3)n2)cn1 | 4.44 ×10⁻⁶ cm/s | 2.62 | > 100000 nM | 30200 nM | > 100000 nM | 34.4 nM | 221 nM | 81 µg/mL (≈ 213 µM)
O=C([C@H]1CCCCN1C(=O)COc1ccccc1)N1Cc2ccc(C3CCOCC3)cc2C1 | 4.45 ×10⁻⁶ cm/s | 2.8 | 642 nM | 477 nM | > 100000 nM | 63.8 nM | 64.1 nM | 14 µg/mL (≈ 31.2 µM)
O=C1Cc2ccc(-c3noc([C@H]4CCCCN4C(=O)COc4ccccc4)n3)cc2N1 | 1.46 ×10⁻⁶ cm/s | 2.63 | > 100000 nM | > 100000 nM | > 100000 nM | 95.9 nM | 102 nM | 13 µg/mL (≈ 31.1 µM)
O=C(Nc1ccc(C(=O)O)c(Cl)c1)c1ccc2c(c1)N(S(=O)(=O)c1cc(Cl)cc(Cl)c1)CC2 | 1.89 ×10⁻⁶ cm/s | 2.67 | 2460 nM | 3350 nM | 3830 nM | 90.2 nM | 65.1 nM | 16 µg/mL (≈ 30.4 µM)
NC(=O)c1cncc(-c2noc([C@H]3CCCCN3C(=O)COc3ccccc3)n2)c1 | 3.83 ×10⁻⁶ cm/s | 1.88 | 24300 nM | 86300 nM | > 100000 nM | 113 nM | 410 nM | 141 µg/mL (≈ 346 µM)
O=C([C@H]1CCCCN1C(=O)COc1ccccc1)N1Cc2ccc(Cl)cc2C1 | 5.03 ×10⁻⁶ cm/s | 3.26 | 616 nM | 819 nM | > 100000 nM | 336 nM | 567 nM | 15 µg/mL (≈ 37.6 µM)
COc1ccc(Cl)cc1S(=O)(=O)N(c1cc(C(=O)Nc2ncc(CC(=O)O)s2)cc2c1OCO2)C(C)C | 3.53 ×10⁻⁶ cm/s | 2.84 | 38300 nM | > 100000 nM | 820 nM | 163 nM | 374 nM | 109 µg/mL (≈ 192 µM)
O=C1CN(c2cccc(-c3noc([C@H]4CCCCN4C(=O)COc4ccccc4)n3)c2)C(=O)N1 | 3.82 ×10⁻⁶ cm/s | 2.62 | 50600 nM | > 100000 nM | > 100000 nM | 50.6 nM | 103 nM | 14 µg/mL (≈ 30.3 µM)
O=C(COc1ccccc1)N1CCCC[C@@H]1c1noc(-c2ccc3cnccc3n2)n1 | 4.52 ×10⁻⁶ cm/s | 2.52 | 17400 nM | > 100000 nM | > 100000 nM | 188 nM | 305 nM | 82 µg/mL (≈ 197 µM)
CCOC(=O)c1cn2ccc(-c3noc([C@H]4CCCCN4C(=O)COc4ccccc4)n3)cc2n1 | 1.99 ×10⁻⁶ cm/s | 2.92 | > 100000 nM | > 100000 nM | > 100000 nM | 68.1 nM | 459 nM | 22 µg/mL (≈ 46.3 µM)
O=C(COc1ccccc1)N1CCCC[C@@H]1c1noc(-c2cccc3[nH]cnc23)n1 | 1.67 ×10⁻⁶ cm/s | 2.84 | 84200 nM | > 100000 nM | > 100000 nM | 87.3 nM | 189 nM | 30 µg/mL (≈ 74.4 µM)
